Earlier results on 47 molecules are cited in the CATMoS acute toxicity set (Mansouri et al. 2021).

“And” between values parts separate entries of the source, which are not always exact repeats. Identical values can stand only once.

This data set can be described thus: rat acute oral toxicity. To be noted: in vivo.
A word on the LD50: it is the dose at which mortality reaches 50%. As to `Cn1nc(-c2ccccc2)c2conc2c1=O`, the LD50 is 1000 mg/kg.

On to `CC1=NOC(=O)/C1=N\Nc1ccccc1Cl`, for which the LD50 was 126 mg/kg.

Take `C[C@@H]1C[C@H]2[C@@H]3CCC4=CC(=O)C=C[C@]4(C)[C@@]3(F)[C@@H](O)C[C@]2(C)[C@@]1(O)C(=O)COC(=O)c1ccncc1`: the LD50 is 3560 mg/kg.

With `CCOP(=S)(CCl)Oc1ccc(C#N)cc1OC` (configuration not stated), the LD50 is 71 mg/kg.

Take `COc1cc(C(F)(F)F)ccn1`: the LD50 is 1750 mg/kg.

Consider `NN1C(=O)CSC1=S`, for which the LD50 is 2.21 mg/kg.

For the molecule `CC1(NC(N)=O)CCCCC1`, the LD50 is 1040 mg/kg.

On to `C[N@+]12CCCC[C@@H]1CCC(=C(c1cccs1)c1cccs1)C2`, for which the LD50 was 1180 mg/kg.

For `COC(C)=NC#N`, the LD50 was 432 mg/kg.

In the case of `C[N+]1(C)[C@@H]2CC[C@H]1C[C@@H](OC(=O)C(CO)c1ccccc1)C2` (some centres not stated), the LD50 was 1050 mg/kg and 1900 mg/kg.

Take `CC(O)=S`: the LD50 was 200 mg/kg.

`Cc1cc(S(=O)(=O)O)c(N)cc1Cl`: the LD50 is 12300 mg/kg.

As to `COP(=S)(OC)Oc1ccc(S(C)=O)c(C)c1` (configuration not stated), the LD50 was 125 mg/kg.

`CC1=CCC2C(C1)C2(C)C` (configuration not stated): the LD50 is 4800 mg/kg.

Take `CC(C)=CCCC(C)=CCCC(=CCCC(C)=CCO)CO`: the LD50 was 10900 mg/kg.

For the molecule `C[N+]1(C)CCCCC1`, the LD50 is 270 mg/kg and 464 mg/kg.

For the molecule `CC(C)c1noc2nc(C(C)(C)C)ncc12`, the LD50 was 15400 mg/kg.

Regarding `COc1cc(Oc2ccc(Cl)cc2Cl)ccc1[N+](=O)[O-]`, the LD50 is 18000 mg/kg.

On to `CCOc1cc2c3c([nH]c2cc1N)CCCC3`, for which the LD50 was 810 mg/kg.

For `C/C(=N/NC(=O)c1ccncc1)c1ccco1`, the LD50 is 110 mg/kg.

In the case of `OC1(c2ccccc2)c2cc(F)ccc2C2=NCCN21` (configuration not stated), the LD50 is 40 mg/kg.

As to `CC[C@H]1CCCC(O[C@H]2CC[C@H](N(C)C)[C@@H](C)O2)[C@@H](C)C(=O)C2=C[C@@H]3[C@@H](C=C[C@@H]4C[C@@H](O[C@@H]5O[C@@H](C)[C@H](OC)[C@@H](OC)[C@H]5OC)C[C@@H]34)[C@@H]2CC(=O)O1` (some centres not stated), the LD50 was 3740 mg/kg.

For `CCC(C)c1ccc(Oc2ccc(C)cc2CC(=O)O)c(Cl)c1` (configuration not stated), the 50% lethal dose (LD50) is 1110 mg/kg.

On to `Nc1cccc(N(CCO)CCO)c1`, for which the LD50 is 246 mg/kg.

For `[O-][n+]1cc[n+]([O-])c2ccccc21`, the LD50 is 500 mg/kg.

Turning to `O=C(OCC1CO1)c1cccc(C(=O)OCC2CO2)c1` (configuration not stated), the LD50 was 1000 mg/kg.

Regarding `Nc1ccc(Cl)cc1[N+](=O)[O-]`, the median lethal dose (LD50) was 400 mg/kg.

As to `CCOP(=S)(OCC)Oc1cnc2ccccc2n1`, the LD50 is 26 mg/kg.

Take `CCCC(C)(C)C(=O)Nc1ccc(Cl)cc1`: the LD50 is 2600 mg/kg.

Turning to `C1CCC2OCCOCCOCCOC3CCCCC3OCCOCCOCCOC2C1` (configuration not stated), the LD50 is 75 mg/kg.

For `Cn1c(=O)c2c(ncn2CCCCN2CCN(c3ccc(F)cc3)CC2)n(C)c1=O`, the 50% lethal dose (LD50) is 353 mg/kg.

Take `O=C(CF)NNc1ccccc1`: the LD50 was 9.1 mg/kg.

Consider `N#C[C@H]1O[C@@H]1C#N`, for which the LD50 is 250 mg/kg.

Regarding `CCCCOCCOC(=O)c1ccccc1C(=O)OCCOCCCC`, the median lethal dose (LD50) was 8380 mg/kg.

Turning to `Cn1c2c(c(=O)n1-c1ccccc1)CCCC2`, the LD50 was 1500 mg/kg.

With `C=CCC1(C(C)SCCCC)C(=O)N=C(O)NC1=O` (configuration not stated), the LD50 was 639 mg/kg.

Regarding `CC(=C\c1ccccc1)/C=C1/SC(=S)N(CC(=O)O)C1=O`, the 50% lethal dose (LD50) is 5.3 mg/kg.

Consider `CCCCCCCC/C=C\CCCCCCCC[N+](C)(C)CC`, for which the median lethal dose (LD50) was 500 mg/kg.

Regarding `CCOP(=O)(OCC)SCn1nc(C)ccc1=O`, the LD50 was 6.5 mg/kg.

`CSc1nc(N=[N+]=[N-])nc(NC(C)C)n1`: the LD50 is 3600 mg/kg.

As for `Nc1cccc2cc(S(=O)(=O)O)ccc12`, the LD50 is 14200 mg/kg.

For `OC(CCCN1CCCCC1)(c1ccccc1)c1ccccc1`, the LD50 was 515 mg/kg.

Turning to `CC1=CC=C(C(C)C)CC1`, the LD50 is 1680 mg/kg.

Regarding `ClCC=C(Cl)CCl`, the LD50 was 224 mg/kg.

In the case of `COP(=S)(OC)Oc1ccc([N+](=O)[O-])c(C(F)(F)F)c1`, the LD50 is 250 mg/kg.

As to `CCN(Cc1ccncc1)N=O`, the 50% lethal dose (LD50) is 40 mg/kg.

Take `COc1ccc(N)cc1OC`: the LD50 was 681 mg/kg.
